# Measured values as given in patent US6686355B2, “Biphenyl sulfonamides useful as matrix metalloproteinase inhibitors” (Warner-Lambert Company, priority 2001, dated 2004).
# Tests used:
# Type in all cases: biochemical
# [1] = molecular target: T1, MMP-2FL (full length Gelatinase A) (Homo sapiens, UniProt P08253); test: Thiopeptolide hydrolysis assay, MMP-2FL; settings: thiopeptolide substrate, HEPES pH 7.0, 22° C.
# T1 sequence (P08253 110-660): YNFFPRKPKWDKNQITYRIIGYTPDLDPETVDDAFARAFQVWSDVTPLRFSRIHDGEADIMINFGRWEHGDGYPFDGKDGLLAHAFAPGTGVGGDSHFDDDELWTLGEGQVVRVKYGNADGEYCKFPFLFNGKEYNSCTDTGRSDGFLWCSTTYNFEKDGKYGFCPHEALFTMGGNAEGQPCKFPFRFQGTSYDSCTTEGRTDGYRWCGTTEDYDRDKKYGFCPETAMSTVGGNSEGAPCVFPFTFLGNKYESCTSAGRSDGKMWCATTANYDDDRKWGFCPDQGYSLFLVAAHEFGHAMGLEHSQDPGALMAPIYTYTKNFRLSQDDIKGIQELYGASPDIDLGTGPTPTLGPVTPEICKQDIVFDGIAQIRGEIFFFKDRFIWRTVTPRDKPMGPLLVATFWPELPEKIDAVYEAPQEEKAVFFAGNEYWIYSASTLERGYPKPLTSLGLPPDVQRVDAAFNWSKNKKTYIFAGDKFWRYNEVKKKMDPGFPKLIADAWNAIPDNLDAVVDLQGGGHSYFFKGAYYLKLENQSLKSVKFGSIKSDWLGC
# Source text: (§1) The assays measure the amount by which a test compound reduces the hydrolysis of a thiopeptolide substrate catalyzed by a matrix metalloproteinase enzyme. Such assays are described in detail by Ye et al., in Biochemistry, 1992;31(45):11231-11235, which is incorporated herein by reference.
# (§2) Thiopeptolide substrates show virtually no decomposition or hydrolysis at or below neutral pH in the absence of a matrix metalloproteinase enzyme. A typical thiopeptolide substrate commonly utilized for assays is Ac-Pro-Leu-Gly-thioester-Leu-Leu-Gly-OEt. A 100 μL assay mixture will contain 50 mM of N-2-hydroxyethylpiperazine-N′-2-ethanesulfonic acid buffer (“HEPES”) at pH 7.0, 10 mM CaCl2, 100 μM thiopeptolide substrate, and 1 mM 5,5″-dithio-bis-(2-nitro-benzoic acid) (DTNB). The thiopeptolide substrate concentration may be varied from, for example, 10 to 800 μM to obtain Km and Kcat values. The change in absorbance at 405 nm is monitored on a Thermo Max microplate reader (Molecular Devices, Menlo Park, Calif.) at room temperature (22° C.). The calculation of the amount of hydrolysis of the thiopeptolide substrate is based on E412=13600 M^−1 cm^−1 for the DTNB-derived product 3-carboxy4-nitrothiophenoxide. Assays are carried out with and without matrix metalloproteinase inhibitor compounds, and the amount of hydrolysis is compared for a determination of inhibitory activity of the test compounds.
# (§3) Several representative compounds have been evaluated for their ability to inhibit various matrix metalloproteinase enzymes. In Table I, MMP-1FL refers to full length interstitial collagenase; MMP-2FL refers to full length Gelatinase A; MMP-3CD refers to the catalytic domain of stromelysin-1; MMP-7FL refers to full length matrilysin; MMP-9FL refers to full length Gelatinase B; MMP-13CD refers to the catalytic domain of collagenase 3; and MMP-14CD refers to the catalytic domain of MMP-14. Test compounds were evaluated at various concentrations in order to determine their respective IC50 values, the micromolar concentration of compound required to cause a 50% inhibition of the catalytic activity of the respective enzyme.
# [2] = molecular target: MMP-13CD (catalytic domain of collagenase 3) (Homo sapiens, UniProt P45452); test: Thiopeptolide hydrolysis assay, MMP-13CD; settings: thiopeptolide substrate, HEPES pH 7.0, 22° C.
# Source text: as §1, §2, §3
# [3] = molecular target: MMP-9FL (full length Gelatinase B) (Homo sapiens, UniProt P14780); test: Thiopeptolide hydrolysis assay, MMP-9FL; settings: thiopeptolide substrate, HEPES pH 7.0, 22° C.
# MMP-9FL (full length Gelatinase B), sequence (P14780 94-707, species assumed): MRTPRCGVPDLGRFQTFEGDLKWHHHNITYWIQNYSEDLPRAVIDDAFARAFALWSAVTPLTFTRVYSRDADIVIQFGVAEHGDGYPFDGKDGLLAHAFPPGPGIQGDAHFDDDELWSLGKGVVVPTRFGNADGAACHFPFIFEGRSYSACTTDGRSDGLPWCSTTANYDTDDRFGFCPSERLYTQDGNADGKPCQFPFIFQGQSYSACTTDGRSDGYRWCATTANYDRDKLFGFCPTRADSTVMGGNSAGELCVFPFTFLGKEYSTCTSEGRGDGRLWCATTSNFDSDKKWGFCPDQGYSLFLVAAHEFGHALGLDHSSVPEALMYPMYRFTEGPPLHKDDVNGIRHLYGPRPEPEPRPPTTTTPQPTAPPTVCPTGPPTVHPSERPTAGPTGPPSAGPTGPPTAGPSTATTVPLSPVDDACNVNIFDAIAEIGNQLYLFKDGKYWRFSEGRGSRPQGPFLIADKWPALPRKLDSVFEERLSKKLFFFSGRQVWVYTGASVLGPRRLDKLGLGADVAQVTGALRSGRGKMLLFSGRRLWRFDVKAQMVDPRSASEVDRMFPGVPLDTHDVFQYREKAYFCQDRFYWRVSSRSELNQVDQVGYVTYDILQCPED
# Source text: as §1, §2, §3
# [4] = molecular target: MMP-3CD (catalytic domain of stromelysin-1) (Homo sapiens, UniProt P08254); test: Thiopeptolide hydrolysis assay, MMP-3CD; settings: thiopeptolide substrate, MES pH 6.0
# MMP-3CD (catalytic domain of stromelysin-1), sequence (P08254 100-272 limits assumed): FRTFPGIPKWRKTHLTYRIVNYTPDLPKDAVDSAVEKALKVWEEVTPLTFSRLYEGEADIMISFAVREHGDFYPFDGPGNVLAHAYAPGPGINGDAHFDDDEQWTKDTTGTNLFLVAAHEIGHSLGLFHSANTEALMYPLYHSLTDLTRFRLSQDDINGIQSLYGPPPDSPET
# Source text: as §1, §2, §3
# It should be appreciated that the assay buffer used with MMP-3CD was 50 mM of 2-morpholinoethanesulfonic acid monohydrate (“MES”) at pH 6.0 rather than the HEPES buffer at pH 7.0 described above.
IC50 [1],IC50 [2],IC50 [3],IC50 [4],Structure (SMILES)
8.8 µM,7.7 µM,59 µM,8.9 µM,"COc1cc(-c2ccc(S(=O)(=O)N3CCSC(C)(C)[C@@H]3C(=O)O)cc2)cc(OC)c1OC [Example 55, (S)-2,2-Dimethyl-4-(3′,4′,5′-trimethoxy-biphenyl-4-sulfonyl)-thiomorpholine-3-carboxylic acid]"
0.81 µM,1.1 µM,18 µM,1.5 µM,"CC1(C)SCCN(S(=O)(=O)c2ccc(-c3ccc(Cl)cc3Cl)cc2)[C@H]1C(=O)O [Example 56, (S)-4-(2′,4′-Dichloro-biphenyl-4-sulfonyl)-2,2-dimethyl-thiomorpholine-3-carboxylic acid]"
0.0088 µM,0.013 µM,0.54 µM,0.0045 µM,"CC1(C)SCCN(S(=O)(=O)c2ccc(-c3ccc(C(F)(F)F)cc3)cc2)[C@H]1C(=O)O [Example 57, (S)-2,2-Dimethyl-4-(4′-trifluoromethyl-biphenyl-4-sulfonyl)-thiomorpholine-3-carboxylic acid]"
0.134 µM,0.425 µM,6.3 µM,0.082 µM,"CC1(C)SCCN(S(=O)(=O)c2ccc(-c3cccc(F)c3)cc2)[C@H]1C(=O)O [Example 58, (S)-4-(3′-Fluoro-biphenyl-4-sulfonyl)-2,2-dimethyl-thiomorpholine-3-carboxylic acid]"
39 µM,25.5 µM,,9.95 µM,"COc1cccc(OC)c1-c1ccc(S(=O)(=O)N2CCSC(C)(C)[C@@H]2C(=O)O)cc1 [Example 60, (S)-4-(2′,6′-Dimethoxy-biphenyl-4-sulfonyl)-2,2-dimethyl-thiomorpholine-3-carboxylic acid]"
6.2 µM,4.9 µM,,0.83 µM,"CC1(C)SCCN(S(=O)(=O)c2ccc(-c3cccc(C#N)c3)cc2)[C@H]1C(=O)O [Example 62, (S)-4-(3′-Cyano-biphenyl-4-sulfonyl)-2,2-dimethyl-thiomorpholine-3-carboxylic acid]"
68 µM,62.5 µM,,21 µM,"CC1(C)SCCN(S(=O)(=O)c2ccc(-c3ccccc3C=O)cc2)[C@H]1C(=O)O [Example 63, (S)-4-(2′-Formyl-biphenyl-4-sulfonyl)-2,2-dimethyl-thiomorpholine-3-carboxylic acid]"

# More lines, now with the values behind:
Structure (SMILES),IC50 [1],IC50 [2],IC50 [3],IC50 [4]
"CC1(C)SCCN(S(=O)(=O)c2ccc(-c3cccc([N+](=O)[O-])c3)cc2)[C@H]1C(=O)O [Example 27, (S)-2,2-Dimethyl-4-(3′-nitro-biphenyl-4-sulfonyl)-thiomorpholine-3-carboxylic acid]",> 100 µM,> 100 µM,> 100 µM,> 100 µM
"CC1(C)SCCN(S(=O)(=O)c2ccc(-c3cccc4ccccc34)cc2)[C@H]1C(=O)O [Example 28, (S)-2,2-Dimethyl-4-(4-naphthalen-1-yl-benzenesulfonyl)-thiomorpholine-3-carboxylic acid]",2.07 µM,2.67 µM,22.8 µM,2.2 µM
"CC1(C)SCCN(S(=O)(=O)c2ccc(-c3ccc(Cl)cc3)cc2)[C@H]1C(=O)O [Example 29, (S)-4-(4′-Chloro-biphenyl-4-sulfonyl)-2,2-dimethyl-thiomorpholine-3-carboxylic acid]",> 100 µM,> 100 µM,> 100 µM,> 100 µM
"CC1(C)SCCN(S(=O)(=O)c2ccc(-c3ccc(C=O)cc3)cc2)[C@H]1C(=O)O [Example 30, (S)-4-(4′-Formyl-biphenyl-4-sulfonyl)-2,2-dimethyl-thiomorpholine-3-carboxylic acid]",0.042 µM,0.096 µM,3.6 µM,0.0154 µM
"Cc1cccc(-c2ccc(S(=O)(=O)N3CCSC(C)(C)[C@@H]3C(=O)O)cc2)c1 [Example 31, (S)-2,2-Dimethyl-4-(3′-methyl-biphenyl-4-sulfonyl)-thiomorpholine-3-carboxylic acid]",> 100 µM,> 100 µM,1.57 µM,> 100 µM
"CC1(C)SCCN(S(=O)(=O)c2ccc(-c3ccc(F)cc3)cc2)[C@H]1C(=O)O [Example 32, (S)-4-(4′-Fluoro-biphenyl-4-sulfonyl)-2,2-dimethyl-thiomorpholine-3-carboxylic acid]",0.133 µM,0.145 µM,4.43 µM,0.0365 µM
"CC1(C)SCCN(S(=O)(=O)c2ccc(-c3ccc4c(c3)OCO4)cc2)[C@H]1C(=O)O [Example 33, (S)-4-(4-1,3-Benzodioxol-5-yl-benzenesulfonyl)-2,2-dimethyl-thiomorpholine-3-carboxylic acid]",0.0185 µM,0.0443 µM,3.15 µM,0.0148 µM
"CC1(C)SCCN(S(=O)(=O)c2ccc(-c3cccc(Cl)c3)cc2)[C@H]1C(=O)O [Example 34, (S)-4-(3′-Chloro-biphenyl-4-sulfonyl)-2,2-dimethyl-thiomorpholine-3-carboxylic acid]",0.187 µM,0.243 µM,10.3 µM,0.0703 µM
"CC1(C)SCCN(S(=O)(=O)c2ccc(-c3cccc(C=O)c3)cc2)[C@H]1C(=O)O [Example 35, (S)-4-(3′-Formyl-biphenyl-4-sulfonyl)-2,2-dimethyl-thiomorpholine-3-carboxylic acid]",0.035 µM,0.021 µM,0.479 µM,0.0154 µM
"CC1(C)SCCN(S(=O)(=O)c2ccc(-c3ccc(F)c(Cl)c3)cc2)[C@H]1C(=O)O [Example 42, (S)-4-(3′-Chloro-4′-fluoro-biphenyl-4-sulfonyl)-2,2-dimethyl-thiomorpholine-3-carboxylic acid]",0.16 µM,0.113 µM,9.15 µM,0.0289 µM
"CC(C)c1ccc(-c2ccc(S(=O)(=O)N3CCSC(C)(C)[C@@H]3C(=O)O)cc2)cc1 [Example 44, (S)-4-(4′-Isopropyl-biphenyl-4-sulfonyl)-2,2-dimethyl-thiomorpholine-3-carboxylic acid]",0.015 µM,0.02 µM,0.37 µM,0.0088 µM
"CC(C)(C)c1ccc(-c2ccc(S(=O)(=O)N3CCSC(C)(C)[C@@H]3C(=O)O)cc2)cc1 [Example 49, (S)-4-(4′-tert-Butyl-biphenyl-4-sulfonyl)-2,2-dimethyl-thiomorpholine-3-carboxylic acid]",0.23 µM,0.061 µM,1.5 µM,0.039 µM
"CC1(C)SCCN(S(=O)(=O)c2ccc(-c3ccc(Cl)s3)cc2)[C@H]1C(=O)O [Example 50, (S)-4-[4-(5-Chloro-thiophen-2-yl)-benzenesulfonyl]-2,2-dimethyl-thiomorpholine-3-carboxylic acid]",0.024 µM,0.12 µM,1.5 µM,0.019 µM
"Cc1cc(-c2ccc(S(=O)(=O)N3CCSC(C)(C)[C@@H]3C(=O)O)cc2)ccc1F [Example 51, (S)-4-(4′-Fluoro-3′-methyl-biphenyl-4-sulfonyl)-2,2-dimethyl-thiomorpholine-3-carboxylic acid]",0.027 µM,0.012 µM,1 µM,0.01 µM
"Cc1ccc(-c2ccc(S(=O)(=O)N3CCSC(C)(C)[C@@H]3C(=O)O)cc2)s1 [Example 52, (S)-2,2-Dimethyl-4-[4-(5-methyl-thiophen-2-yl)-benzenesulfonyl]-thiomorpholine-3-carboxylic acid]",0.013 µM,0.036 µM,0.52 µM,0.014 µM
